Laboratory results reported in ChEMBL document CHEMBL1909046, “DrugMatrix in vitro pharmacology data”.

Key:
[1] = biological target: T1, Alpha-2A adrenergic receptor (Homo sapiens, UniProt P08913); type: cell membranes, Sf9, Membrane; conditions: sf9; also: in other assays of this panel Not Active means under 50% inhibition at 10 µM
T1 sequence (P08913 whole entry): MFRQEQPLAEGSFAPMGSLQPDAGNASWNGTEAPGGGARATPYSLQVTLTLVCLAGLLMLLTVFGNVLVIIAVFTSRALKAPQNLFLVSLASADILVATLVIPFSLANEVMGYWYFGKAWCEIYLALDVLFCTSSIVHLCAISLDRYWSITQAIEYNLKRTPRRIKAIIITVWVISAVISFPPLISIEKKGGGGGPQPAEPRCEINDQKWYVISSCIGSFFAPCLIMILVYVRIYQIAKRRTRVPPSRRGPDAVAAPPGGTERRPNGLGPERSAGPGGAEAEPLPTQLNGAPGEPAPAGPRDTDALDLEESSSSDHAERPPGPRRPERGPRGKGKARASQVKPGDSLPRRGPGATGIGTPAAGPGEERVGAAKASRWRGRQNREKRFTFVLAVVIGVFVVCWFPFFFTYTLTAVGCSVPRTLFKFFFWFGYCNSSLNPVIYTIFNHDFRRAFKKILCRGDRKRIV

[2] = DRUGMATRIX: Sodium/nucleoside co-transporter radioligand binding (ligand: nitrobenzylthioinosine); type: cell membranes, Cavia porcellus, Dunkin-Hartley, Cerebral cortex, Membrane; conditions: Not Active = under 50% inhibition at 10 µM
Cannabinoid receptor 1 = Cannabinoid receptor 1 (Homo sapiens, UniProt P21554); type: cell membranes, Membrane; conditions: chem-1; also: in other assays of this panel Not Active means under 50% inhibition at 10 µM
Sequence of Cannabinoid receptor 1 (P21554 whole entry): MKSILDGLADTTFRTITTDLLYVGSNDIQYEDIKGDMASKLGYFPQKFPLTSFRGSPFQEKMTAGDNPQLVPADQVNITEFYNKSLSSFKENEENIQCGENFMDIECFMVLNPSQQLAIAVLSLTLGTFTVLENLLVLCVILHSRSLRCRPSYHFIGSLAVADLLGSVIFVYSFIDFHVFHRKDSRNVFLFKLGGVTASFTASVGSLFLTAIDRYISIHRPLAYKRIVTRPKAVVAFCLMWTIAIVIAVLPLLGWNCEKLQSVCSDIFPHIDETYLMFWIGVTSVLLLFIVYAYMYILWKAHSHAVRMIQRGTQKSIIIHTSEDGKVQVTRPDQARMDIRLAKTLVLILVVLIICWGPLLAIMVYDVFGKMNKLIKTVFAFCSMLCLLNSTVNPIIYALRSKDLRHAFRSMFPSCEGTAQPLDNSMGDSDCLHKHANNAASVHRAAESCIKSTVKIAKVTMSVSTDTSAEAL

Calcitonin receptor = biological target: T2, Calcitonin receptor (Homo sapiens, UniProt P30988); type: cell membranes, Membrane; conditions: t47d; also: in other assays of this panel Not Active means under 50% inhibition at 10 µM
T2 sequence (P30988 whole entry): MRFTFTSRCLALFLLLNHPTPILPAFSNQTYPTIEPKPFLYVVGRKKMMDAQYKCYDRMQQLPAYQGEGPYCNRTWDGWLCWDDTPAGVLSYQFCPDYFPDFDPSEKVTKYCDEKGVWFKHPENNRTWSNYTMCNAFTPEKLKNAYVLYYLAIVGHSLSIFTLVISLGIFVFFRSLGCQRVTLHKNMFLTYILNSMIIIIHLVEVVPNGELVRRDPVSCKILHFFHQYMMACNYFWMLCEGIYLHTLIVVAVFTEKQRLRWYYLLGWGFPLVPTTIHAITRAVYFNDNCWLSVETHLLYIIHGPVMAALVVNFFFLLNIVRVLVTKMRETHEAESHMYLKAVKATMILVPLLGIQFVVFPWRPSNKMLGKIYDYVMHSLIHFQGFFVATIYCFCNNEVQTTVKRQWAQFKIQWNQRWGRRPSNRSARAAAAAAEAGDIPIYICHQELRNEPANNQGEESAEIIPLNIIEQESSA

Acetylcholinesterase = Acetylcholinesterase (Homo sapiens, UniProt P22303); assay: DRUGMATRIX: Acetylcholinesterase enzyme inhibition (substrate: acetylthiocholine); type: cell-based, HEK293; conditions: hek293; Not Active = under 50% inhibition at 10 µM
Sequence of Acetylcholinesterase (P22303 whole entry): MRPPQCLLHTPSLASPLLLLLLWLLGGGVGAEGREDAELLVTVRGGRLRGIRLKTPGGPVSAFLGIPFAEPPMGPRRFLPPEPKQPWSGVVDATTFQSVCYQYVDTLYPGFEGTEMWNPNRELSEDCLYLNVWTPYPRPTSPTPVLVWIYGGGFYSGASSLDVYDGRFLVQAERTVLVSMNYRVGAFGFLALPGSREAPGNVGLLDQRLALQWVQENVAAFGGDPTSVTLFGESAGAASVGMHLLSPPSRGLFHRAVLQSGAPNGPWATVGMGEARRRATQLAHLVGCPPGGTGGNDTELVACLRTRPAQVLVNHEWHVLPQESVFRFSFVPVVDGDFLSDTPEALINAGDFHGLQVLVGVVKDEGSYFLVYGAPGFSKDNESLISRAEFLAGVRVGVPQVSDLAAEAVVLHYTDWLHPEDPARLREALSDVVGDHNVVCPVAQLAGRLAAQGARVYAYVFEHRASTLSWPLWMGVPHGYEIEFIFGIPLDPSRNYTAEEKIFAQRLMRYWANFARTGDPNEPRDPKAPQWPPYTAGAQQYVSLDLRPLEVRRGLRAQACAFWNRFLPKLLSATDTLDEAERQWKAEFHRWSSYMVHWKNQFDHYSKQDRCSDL

[3] = DRUGMATRIX: GABAA, Flunitrazepam, Central radioligand binding (ligand: [3H] Flunitrazepam); type: cell membranes, Rattus norvegicus, Wistar, Brain, Membrane; conditions: Not Active = under 50% inhibition at 10 µM

N[C@@H]1[C@H]2CN(c3nc4c(cc3F)c(=O)c(C(=O)O)cn4-c3ccc(F)cc3F)C[C@@H]12 [TROVAFLOXACIN]
Not Active: IC50 [1] | IC50 [2] | Ki [2] | IC50 (Cannabinoid receptor 1) | IC50 (Calcitonin receptor) | IC50 (Acetylcholinesterase) | IC50 [3] | Ki [3]

N#CC(C#N)=Cc1ccc(O)c(O)c1 [TYRPHOSTIN 23]
Not Active: IC50 [1] | IC50 [2] | Ki [2] | IC50 (Cannabinoid receptor 1) | IC50 (Calcitonin receptor) | IC50 (Acetylcholinesterase) | IC50 [3] | Ki [3]

CC[C@]1(O)C[C@H]2CN(CCc3c([nH]c4ccccc34)[C@@](C(=O)OC)(c3cc4c(cc3OC)N(C=O)[C@H]3[C@@](O)(C(=O)OC)[C@H](OC(C)=O)[C@]5(CC)C=CCN6CC[C@]43[C@@H]65)C2)C1 [VINCRISTINE]
Not Active: IC50 [1] | IC50 [2] | Ki [2] | IC50 (Cannabinoid receptor 1) | IC50 (Calcitonin receptor) | IC50 (Acetylcholinesterase) | IC50 [3] | Ki [3]

CCCOc1ccccc1-c1nc2nn[nH]c2c(=O)[nH]1 [ZAPRINAST]
Not Active: IC50 [1] | IC50 [2] | Ki [2] | IC50 (Cannabinoid receptor 1) | IC50 (Calcitonin receptor) | IC50 (Acetylcholinesterase) | IC50 [3] | Ki [3]

SODIUM NITROPRUSSIDE
Not Active: IC50 [1] | Ki [1] | IC50 [2] | Ki [2] | IC50 (Cannabinoid receptor 1) | Ki (Cannabinoid receptor 1) | IC50 (Calcitonin receptor) | Ki (Calcitonin receptor) | IC50 (Acetylcholinesterase) | Ki (Acetylcholinesterase) | IC50 [3] | Ki [3]
